From patent publication US9725442B2, “Heterocyclic derivative having PGD2 receptor antagonist activity” (Shionogi & Co., Ltd., priority 2011, dated 2017)
Read-outs that look alike come from different tables or passages of the source.

Assays:
CYP2C19 = CYP2C19 (Homo sapiens (Human), UniProt P33261); assay: CYP inhibition test, mephenyloin 4'-hydroxylation; assay type: in vitro ADME; settings: pooled human hepatic microsome, 50 μmol/L S-mephenyloin
Text: (§1) Using commercially available pooled human hepatic microsome, and employing, as markers, 7-ethoxyresorufin O-deethylation (CYP1A2), tolbutamide methyl-hydroxylation (CYP2C9), mephenyloin 4′-hydroxylation (CYP2C19), dextromethorphan O-demethylation (CYP2D6), and terfenedine hydroxylation as typical substrate metabolism reactions of human main five CYP enzyme forms (CYP1A2, 2C9, 2C19, 2D6, 3A4), an inhibitory degree of each metabolite production amount by a compound of the present compound was assessed.
(§2) The reaction conditions were as follows: substrate, 0.5 μmol/L ethoxyresorufin (CYP1A2), 100 μmol/L tolbutamide (CYP2C9), 50 μmol/L S-mephenyloin (CYP2C19), 5 μmol/L dextromethorphan (CYP2D6), 1 μmol/L terfenedine (CYP3A4); reaction time, 15 minutes; reaction temperature, 37° C.; enzyme, pooled human hepatic microsome 0.2 mg protein/mL; concentration of a compound of the present invention, 1, 5, 10, 20 μmol/L (four points).
(§3) Each five kinds of substrates, human hepatic microsome, or a compound of the present invention in 50 mM Hepes buffer as a reaction mixture was added to a 96-well plate at the composition as described above, NADPH, as a cofactor was added to initiate metabolism reactions as markers and. After the incubation at 37° C. for 15 minutes, a methanol/acetonitrile=1/1 (v/v) solution was added to stop the reaction. After the centrifugation at 3000 rpm for 15 minutes, resorufin (CYP1A2 metabolite) in the supernatant was quantified by a fluorescent multilabel counter and tolbutamide hydroxide (CYP2C9 metabolite), mephenyloin 4′ hydroxide (CYP2C19 metabolite), dextrorphan (CYP2D6 metabolite), and terfenadine alcohol (CYP3A4 metabolite) were quantified by LC/MS/MS.

CYP2D6 = CYP2D6 (Homo sapiens (Human), UniProt P10635); assay: CYP inhibition test, dextromethorphan O-demethylation; assay type: in vitro ADME; settings: pooled human hepatic microsome, 5 μmol/L dextromethorphan
Sequence of CYP2D6 (P10635 whole entry): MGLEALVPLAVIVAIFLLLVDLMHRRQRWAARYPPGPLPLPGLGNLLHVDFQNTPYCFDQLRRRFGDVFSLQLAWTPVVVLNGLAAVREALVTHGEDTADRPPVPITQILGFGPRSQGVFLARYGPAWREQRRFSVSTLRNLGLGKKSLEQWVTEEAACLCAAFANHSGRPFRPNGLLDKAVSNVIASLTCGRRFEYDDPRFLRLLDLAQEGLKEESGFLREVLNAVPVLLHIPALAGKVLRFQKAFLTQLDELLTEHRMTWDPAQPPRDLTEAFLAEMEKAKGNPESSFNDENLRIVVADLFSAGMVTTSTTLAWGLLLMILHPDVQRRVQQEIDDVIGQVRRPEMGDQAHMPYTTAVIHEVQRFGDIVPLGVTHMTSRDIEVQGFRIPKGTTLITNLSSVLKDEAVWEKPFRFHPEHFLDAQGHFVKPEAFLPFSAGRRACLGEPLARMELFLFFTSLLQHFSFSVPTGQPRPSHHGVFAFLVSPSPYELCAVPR
Text: as §1, §2, §3

[1] = target: CYP3A4 enzyme expressed in Escherichia coli (Homo sapiens (Human), UniProt P08684); assay: CYP3A4 fluorescent MBI test; assay type: in vitro ADME; settings: pre-reaction time 0 or 30 minutes, substrate 7-BFC; read-out: CYP3A4 MBI, difference between IC50 values with and without preincubation
Sequence of CYP3A4 enzyme expressed in Escherichia coli (P08684 whole entry): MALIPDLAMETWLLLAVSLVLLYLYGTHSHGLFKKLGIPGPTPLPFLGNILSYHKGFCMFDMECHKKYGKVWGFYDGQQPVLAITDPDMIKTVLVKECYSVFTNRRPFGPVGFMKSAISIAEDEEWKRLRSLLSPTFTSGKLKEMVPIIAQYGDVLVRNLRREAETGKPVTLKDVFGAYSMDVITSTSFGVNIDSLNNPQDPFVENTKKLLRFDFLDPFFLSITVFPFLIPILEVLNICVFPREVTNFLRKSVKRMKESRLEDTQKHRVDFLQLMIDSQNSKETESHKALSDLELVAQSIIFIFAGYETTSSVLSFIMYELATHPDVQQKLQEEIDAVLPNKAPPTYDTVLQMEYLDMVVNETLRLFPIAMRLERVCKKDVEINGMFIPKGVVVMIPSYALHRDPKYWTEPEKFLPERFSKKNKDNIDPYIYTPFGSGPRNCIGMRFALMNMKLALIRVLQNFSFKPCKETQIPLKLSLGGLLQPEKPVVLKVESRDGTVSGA
Procedure: The CYP3A4 fluorescent MBI test is a test of investigating enhancement of CYP3A4 inhibition of a compound by a metabolism reaction, and the test was performed using, as CYP3A4 enzyme expressed in Escherichia coli and employing, as an index, a reaction in which 7-benzyloxytrifluoromethylcoumarin (7-BFC) is debenzylated by the CYP3A4 enzyme to produce a metabolite, 7-hydroxytrifluoromethylcoumarin (HFC) emitting fluorescent light.
The reaction conditions were as follows: substrate, 5.6 μmol/L 7-BFC; pre-reaction time, 0 or 30 minutes; reaction time, 15 minutes; reaction temperature, 25° C. (room temperature); CYP3A4 content (expressed in Escherichia coli), at pre-reaction […], at reaction […] (at 10-fold dilution); concentration of a compound of the present, 0.625, 1.25, 2.5, 5, 10, 20 μmol/L (six points).
An enzyme in a K-Pi buffer (pH 7.4) and a compound solution of the present invention as a pre-reaction mixture were added to a 96-well plate at the composition of the pre-reaction, a part of it was transferred to another 96-well plate so that it was 1/10 diluted by a substrate in a K-Pi buffer, NADPH as a co-factor was added to initiate a reaction as an index (without preincubation) and, after a predetermined time of a reaction, acetonitrile/0.5 mol/L Tris(trishydroxyaminomethane)=4/1 (V/V) was added to stop the reaction. In addition, NADPH was added to a remaining preincubation solution to initiate a preincubation (with preincubation) and, after a predetermined time of a preincubation, a part was transferred to another plate so that it was 1/10 diluted with a substrate and a K-Pi buffer to initiate a reaction as an index. After a predetermined time of a reaction, acetonitrile/0.5 mol/L Tris(trishydroxyaminomethane)=4/1 (V/V) was added to stop the reaction. For the plate on which each index reaction had been performed, a fluorescent value of 7-HFC which is a metabolite was measured with a fluorescent plate reader. (Ex=420 nm, Em=535 nm).

CYP2C9 = CYP2C9 (Homo sapiens (Human), UniProt P11712); assay: CYP inhibition test, tolbutamide methyl-hydroxylation; assay type: in vitro ADME; settings: pooled human hepatic microsome, 100 μmol/L tolbutamide
Sequence of CYP2C9 (P11712 whole entry): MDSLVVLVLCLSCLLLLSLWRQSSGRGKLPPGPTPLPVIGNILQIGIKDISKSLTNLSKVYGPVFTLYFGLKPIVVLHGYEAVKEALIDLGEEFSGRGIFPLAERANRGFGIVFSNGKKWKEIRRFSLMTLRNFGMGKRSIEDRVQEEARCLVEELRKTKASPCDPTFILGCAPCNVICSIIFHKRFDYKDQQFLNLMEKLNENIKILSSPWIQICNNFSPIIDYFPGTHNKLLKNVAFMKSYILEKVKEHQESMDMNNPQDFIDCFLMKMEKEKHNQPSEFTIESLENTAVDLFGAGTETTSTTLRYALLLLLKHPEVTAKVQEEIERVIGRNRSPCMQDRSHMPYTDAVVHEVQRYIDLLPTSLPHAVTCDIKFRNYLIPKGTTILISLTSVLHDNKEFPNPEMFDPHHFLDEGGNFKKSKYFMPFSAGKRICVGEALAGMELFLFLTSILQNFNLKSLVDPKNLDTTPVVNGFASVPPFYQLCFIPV
Text: as §1, §2, §3

CRTH2 [2] = target: T1, CRTH2 (Homo sapiens (Human), UniProt Q9Y5Y4); assay: CRTH2 receptor binding inhibitory activity ([3H]-PGD2 displacement, membranes of CRTH2-expressing K562 cell); settings: [3H]-PGD2 displacement, membrane of CRTH2-expressing K562 cell, read-out: Ki
T1 sequence (Q9Y5Y4 whole entry): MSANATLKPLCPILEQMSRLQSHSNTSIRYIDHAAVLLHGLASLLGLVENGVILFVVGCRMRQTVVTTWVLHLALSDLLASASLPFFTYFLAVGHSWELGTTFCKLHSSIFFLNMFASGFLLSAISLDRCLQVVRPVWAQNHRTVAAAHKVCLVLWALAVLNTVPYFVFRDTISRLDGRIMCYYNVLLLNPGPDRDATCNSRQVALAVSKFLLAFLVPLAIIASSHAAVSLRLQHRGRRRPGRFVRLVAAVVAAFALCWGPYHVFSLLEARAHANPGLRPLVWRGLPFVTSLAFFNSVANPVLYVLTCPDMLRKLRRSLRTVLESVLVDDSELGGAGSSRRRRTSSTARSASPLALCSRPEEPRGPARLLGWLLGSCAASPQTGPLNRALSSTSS
In short: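 CRTH2-expressing K562 membranes (20 μg/well) in 50 mM Tris/HCl pH 7.4 with 10 mM MgCl2 were incubated with [3H]-PGD2 for 60 min at room temperature, then filtered.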

CYP3A4 = CYP3A4 (Homo sapiens (Human), UniProt P08684); assay: CYP inhibition test, terfenedine hydroxylation; assay type: in vitro ADME; settings: pooled human hepatic microsome, 1 μmol/L terfenedine
Sequence of CYP3A4 (P08684 whole entry): as the sequence (P08684 whole entry) above
Text: as §1, §2, §3

[3] = Metabolism stability test; assay type: in vitro ADME; settings: human liver microsomes, 30 minutes, 37° C., NADPH, 0.5 μmol/L of the compound
Procedure: Using a commercially available pooled human hepatic microsomes, a compound of the present invention was reacted for a constant time, a remaining rate was calculated by comparing a reacted sample and an unreacted sample, thereby, a degree of metabolism in liver was assessed.
A reaction was performed (oxidative reaction) at 37° C. for 0 minute or 30 minutes in the presence of 1 mmol/L NADPH in 0.2 mL of a buffer (50 mmol/L Tris-HCl pH 7.4, 150 mmol/L potassium chloride, 10 mmol/L magnesium chloride) containing 0.5 mg protein/mL of human liver microsomes. After the reaction, 50 μL of the reaction mixture was added to 100 μL of a methanol/acetonitrile=1/1 (v/v), mixed and centrifuged at 3000 rpm for 15 minutes. The compound of the present invention in the supernatant was quantified by LC/MS/MS, and a remaining amount of the compound of the present invention after the reaction was calculated, letting a compound amount at 0 minute reaction time to be 100%. Glucuronidation reaction was in the presence of 5 mM UDP-glucuronic acid in place of NADPH, followed by similar operations.

[4] = Solubility test (1% DMSO addition, artificial intestinal juice pH 6.8); assay type: physicochemical; settings: fassgf or other biorelevant, kinetic from dmso stock, artificial intestinal juice pH 6.8, 16 hours at 25° C.
Procedure: A 10 mmol/L solution of the compound of the present invention is prepared with DMSO, and 6 μL of the compound solution is added to 594 μL of an artificial intestinal juice (water and 118 mL of 0.2 mol/L NaOH reagent are added to 250 mL of 0.2 mol/L potassium dihydrogen phosphate reagent to reach 1000 mL) with a pH of 6.8. The mixture is left standing for 16 hours at 25° C., and the mixture is vacuum-filtered. The filtrate is two-fold diluted with methanol/water=1/1 (V/V), and the compound concentration in the filtrate is measured with HPLC or LC/MS/MS by the absolute calibration method.

CYP1A2 = CYP1A2 (Homo sapiens (Human), UniProt P05177); assay: CYP inhibition test, 7-ethoxyresorufin O-deethylation; assay type: in vitro ADME; settings: pooled human hepatic microsome, 0.5 μmol/L ethoxyresorufin
Sequence of CYP1A2 (P05177 whole entry): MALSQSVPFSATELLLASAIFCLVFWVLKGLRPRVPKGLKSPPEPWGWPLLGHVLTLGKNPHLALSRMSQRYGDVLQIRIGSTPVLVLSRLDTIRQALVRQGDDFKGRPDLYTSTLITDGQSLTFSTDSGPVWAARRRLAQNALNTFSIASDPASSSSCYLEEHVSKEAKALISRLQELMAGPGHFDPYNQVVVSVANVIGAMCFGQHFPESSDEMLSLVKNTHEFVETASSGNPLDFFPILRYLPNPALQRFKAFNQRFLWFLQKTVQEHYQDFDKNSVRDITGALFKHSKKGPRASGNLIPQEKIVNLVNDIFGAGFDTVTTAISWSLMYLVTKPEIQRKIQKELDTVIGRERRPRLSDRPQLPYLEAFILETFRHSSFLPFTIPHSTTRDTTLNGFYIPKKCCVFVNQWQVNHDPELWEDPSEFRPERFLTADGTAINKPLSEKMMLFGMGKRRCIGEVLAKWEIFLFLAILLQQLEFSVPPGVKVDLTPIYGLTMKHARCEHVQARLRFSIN
Text: as §1, §2, §3

Human DP1 receptor = Human DP1 receptor (Homo sapiens (Human), UniProt Q13258); assay: Human DP1 inhibitory activity in DP1-expressing cell (PGD2-induced cAMP); assay type: cell-based; settings: category of cAMP IC50, human DP1 receptor expressing Jurkut cell
Sequence of Human DP1 receptor (Q13258 whole entry): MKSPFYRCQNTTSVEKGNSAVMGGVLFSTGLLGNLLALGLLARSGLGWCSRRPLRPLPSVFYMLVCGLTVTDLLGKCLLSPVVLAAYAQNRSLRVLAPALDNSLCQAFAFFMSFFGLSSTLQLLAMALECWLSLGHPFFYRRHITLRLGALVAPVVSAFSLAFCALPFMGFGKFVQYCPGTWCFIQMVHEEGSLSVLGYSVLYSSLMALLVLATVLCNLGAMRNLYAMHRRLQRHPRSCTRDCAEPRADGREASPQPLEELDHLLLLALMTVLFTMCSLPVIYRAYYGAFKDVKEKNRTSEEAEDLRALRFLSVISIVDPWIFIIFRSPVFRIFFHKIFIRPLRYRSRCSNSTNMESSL
Procedure: Compounds were categorized as AA (cAMP is less than 100 nM) and A (cAMP is more than 100 nM and less than 5000 nM) as shown in Table 99 and 100.

CRTH2 [5] = target: T1, CRTH2; assay: CRTH2 inhibitory activity in CRTH2-expressing cells (PGD2-induced intracellular calcium increase, K562); assay type: cell-based; settings: 200 nM PGD2, read-out: IC50, inhibition of intracellular calcium concentration increase induced by PGD2
Procedure: CRTH2 inhibitory activities of compounds were determined as inhibition activity of intra-cellular calcium concentration increase induced by PGD2 in CRTH2-expressing cells.
CRTH2-expressing K562 cells were suspended at concentration of 2×10^6 cells/ml in buffer (10 mM HEPES, pH 7.4, 0.1% Bovine serum albumin). Cells were incubated with […] (4 μM) for 30 min at room temperature. Cells were washed, resuspended and mixed with various concentration of compounds of the present invention. After 2 min, cells were treated with 200 nM of PGD2. Then intracellular calcium concentration was measured using intracellular ion analyzer (FDSS3000). Inhibition ratio was defined by comparing intracellular calcium concentration increase with and without compound, and IC50 for each compound was calculated from inhibitory curve.

[6] = CRTH2 receptor binding, categorized AAAA/AAA

Sequence of CYP2C19 (P33261 whole entry): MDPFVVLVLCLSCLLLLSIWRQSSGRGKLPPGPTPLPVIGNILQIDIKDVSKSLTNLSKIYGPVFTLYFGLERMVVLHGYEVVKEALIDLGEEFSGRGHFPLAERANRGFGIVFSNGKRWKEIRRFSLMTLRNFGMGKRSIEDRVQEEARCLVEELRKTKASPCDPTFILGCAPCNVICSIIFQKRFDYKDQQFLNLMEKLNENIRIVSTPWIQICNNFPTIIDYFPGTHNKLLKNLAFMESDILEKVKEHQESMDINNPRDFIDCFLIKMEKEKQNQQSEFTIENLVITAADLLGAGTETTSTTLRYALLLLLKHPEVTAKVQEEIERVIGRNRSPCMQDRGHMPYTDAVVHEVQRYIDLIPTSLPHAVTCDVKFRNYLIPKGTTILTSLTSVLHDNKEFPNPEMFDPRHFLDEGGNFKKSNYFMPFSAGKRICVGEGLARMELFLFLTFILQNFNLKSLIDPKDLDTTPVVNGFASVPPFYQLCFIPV

Row | Compound | IC50 (CYP2C19) [µM] | IC50 (CYP2D6) [µM] | difference in IC50 with vs without preincubation [1] [µM] | IC50 (CYP2C9) [µM] | Ki (CRTH2 [2]; [6]) [µM] | Ki (CRTH2 [2]) [µM] | IC50 (CYP3A4) [µM] | remaining rate after reaction (result heading prints '% inhibition') [3] [%] | solubility at 16 h [4] [µM] | IC50 (CYP1A2) [µM] | IC50 (Human DP1 receptor) [µM] | IC50 (CRTH2 [5]) [µM]
1 | CC(C)Oc1ccc(S(=O)(=O)N2C[C@H](n3nc(CC(=O)O)c4ccc(F)cc43)C[C@H]2CO)cc1 [Compound I-9] | > 20 | > 20 | ≤ 3 | > 20 | < 0.1 | 0.0062 | > 20 | 98.7 | > 50 | > 20 | 0.1 to 5 | –
2 | C[C@@H]1CN(S(=O)(=O)c2ccc(Cl)cc2)C[C@@H]1n1nc(CC(=O)O)c2ccc(F)cc21 [Compound I-49] | > 20 | > 20 | – | > 20 | < 0.1 | 0.00059 | > 20 | 94.7 | > 50 | > 20 | 0.1 to 5 | 0.086
